Legend:
[1] = target: T1, human serotonin 5-HT6 receptor (Homo sapiens, UniProt P50406); test: [3H]LSD binding at cloned 5-HT6 receptors; conditions: for IC50: [3H]LSD 1.87 nM, cloned receptor membranes, 37° C., 60 min, read-out: IC50; for inhibition at 10 µM: read-out: Binding affinity (Inhibition rate % at 10 μM) 5HT6
T1 construct: made in house; host or cells: Sf21 insect cells (pBacPAK8 baculovirus vector)

D1 = D1 (Homo sapiens, UniProt P21728); test: Radioligand binding for selectivity, D1; conditions: read-out: Binding affinity (Inhibition rate % at 10 μM) D1
D1, sequence (P21728 whole entry): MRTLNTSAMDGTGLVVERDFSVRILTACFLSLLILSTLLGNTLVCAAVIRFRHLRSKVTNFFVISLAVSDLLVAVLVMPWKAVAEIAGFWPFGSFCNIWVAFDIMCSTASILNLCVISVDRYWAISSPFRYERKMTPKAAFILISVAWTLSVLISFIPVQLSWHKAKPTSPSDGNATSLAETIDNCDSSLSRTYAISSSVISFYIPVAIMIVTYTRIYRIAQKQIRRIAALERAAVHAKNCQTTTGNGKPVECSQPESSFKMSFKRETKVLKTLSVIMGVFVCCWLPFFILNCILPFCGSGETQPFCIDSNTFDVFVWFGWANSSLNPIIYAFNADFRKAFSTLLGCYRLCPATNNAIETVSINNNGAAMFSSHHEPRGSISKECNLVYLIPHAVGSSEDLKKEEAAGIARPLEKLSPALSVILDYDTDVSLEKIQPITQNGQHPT

hD2L receptor = target: T2, hD2L receptor (Homo sapiens, UniProt P14416); test: Radioligand binding, dopamine D2 ([3H]spiperone); conditions: read-out: Binding affinity (Inhibition rate % at 10 μM) D2
T2 construct: purchased BioSignal Packard Inc., Montreal, Canada
T2 sequence (P14416 whole entry): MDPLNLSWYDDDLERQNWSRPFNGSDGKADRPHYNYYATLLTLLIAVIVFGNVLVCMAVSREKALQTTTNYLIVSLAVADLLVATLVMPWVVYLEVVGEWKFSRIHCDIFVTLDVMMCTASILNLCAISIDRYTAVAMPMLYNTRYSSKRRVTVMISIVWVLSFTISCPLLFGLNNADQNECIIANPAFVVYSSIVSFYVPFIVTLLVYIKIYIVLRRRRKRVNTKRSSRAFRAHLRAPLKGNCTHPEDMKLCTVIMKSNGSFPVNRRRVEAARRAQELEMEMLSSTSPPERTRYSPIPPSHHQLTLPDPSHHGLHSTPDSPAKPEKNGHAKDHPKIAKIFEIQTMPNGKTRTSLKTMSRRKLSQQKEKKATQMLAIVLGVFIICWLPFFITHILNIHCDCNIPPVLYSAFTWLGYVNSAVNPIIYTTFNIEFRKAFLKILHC
Protocol: (§1) The radioligands used were [^3H] spiperone (for hD2L and hD3 receptors, 1 nM) and [^3H] YM-09151-2 (for hD4.2 receptor, 0.06 nM). Radioligand bindings were performed by the protocols provided by the supplier of receptor membranes (BioSignal Packard Inc., Montreal, Canada). Briefly, the buffer used in D2 or D3 receptor binding assay was 50 mM Tris-HCl (pH 7.4), 10 mM MgCl2, 1 mM EDTA, or 50 mM Tris-HCl (pH 7.4), 5 mM MgCl2, 5 mM EDTA, 5 mM KCl, 1.5 mM CaCl2, 120 mM NaCl, respectively. In [^3H] YM-09151-2 receptor binding assays, the buffer containing 50 mM Tris-HCl (pH 7.4), 5 mM MgCl2, 5 mM EDTA, 5 mM KCl and 1.5 mM CaCl2 was used. Nonspecific binding was determined with haloperidol (10 μM) or clozapine (10 μM) for D2 and D3, and D4 receptors, respectively. Competition binding studies were carried out with 7-8 concentrations of the test compound run in duplicate tubes, and isotherms from three assays were calculated by computerized nonlinear regression analysis (GraphPad Prism Program, San Diego, […]) to yield median inhibitory concentration (IC50) values.

hD3 receptor = target: T3, hD3 receptor (Homo sapiens, UniProt P35462); test: Radioligand binding, dopamine D3 ([3H]spiperone); conditions: read-out: Binding affinity (Inhibition rate % at 10 μM) D3
T3 construct: purchased BioSignal Packard Inc., Montreal, Canada
T3 sequence (P35462 whole entry): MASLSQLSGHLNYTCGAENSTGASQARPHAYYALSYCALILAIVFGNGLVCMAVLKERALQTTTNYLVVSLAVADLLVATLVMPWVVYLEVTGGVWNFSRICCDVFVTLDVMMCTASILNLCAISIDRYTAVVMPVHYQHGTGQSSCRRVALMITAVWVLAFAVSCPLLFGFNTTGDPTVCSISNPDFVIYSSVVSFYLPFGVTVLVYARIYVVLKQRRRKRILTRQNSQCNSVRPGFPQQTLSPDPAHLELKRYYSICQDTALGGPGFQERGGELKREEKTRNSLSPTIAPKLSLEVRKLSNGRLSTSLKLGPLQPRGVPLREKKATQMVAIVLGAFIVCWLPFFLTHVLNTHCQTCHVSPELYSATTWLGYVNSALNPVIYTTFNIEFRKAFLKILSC
Protocol: as §1

hD4.2 receptor = target: T4, hD4.2 receptor (Homo sapiens, UniProt P21917, DEL265-296); test: Radioligand binding, dopamine D4 ([3H]YM-09151-2); conditions: read-out: Binding affinity (Inhibition rate % at 10 μM) D4
T4 construct: purchased BioSignal Packard Inc., Montreal, Canada
T4 sequence (P21917 with tags, fused parts or gaps DEL265-296): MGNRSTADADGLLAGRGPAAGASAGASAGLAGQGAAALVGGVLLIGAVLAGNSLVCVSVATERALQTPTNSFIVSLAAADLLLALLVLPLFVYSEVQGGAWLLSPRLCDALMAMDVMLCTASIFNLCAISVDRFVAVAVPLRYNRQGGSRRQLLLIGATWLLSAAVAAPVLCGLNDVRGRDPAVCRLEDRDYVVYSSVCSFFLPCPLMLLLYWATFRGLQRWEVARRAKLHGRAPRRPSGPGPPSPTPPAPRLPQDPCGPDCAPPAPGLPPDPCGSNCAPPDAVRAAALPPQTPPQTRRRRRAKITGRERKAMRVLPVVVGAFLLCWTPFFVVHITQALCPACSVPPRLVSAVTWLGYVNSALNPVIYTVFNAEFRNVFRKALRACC
Protocol: as §1

5-HT1a = target: T5, 5-HT1a (Homo sapiens, UniProt P08908); test: Radioligand binding, 5-HT1a ([3H]8-OH-DPAT); conditions: read-out: Binding affinity (Inhibition rate % at 10 μM) 5HT1a
T5 construct: purchased Euroscreen/BioSignal Packard Inc
T5 sequence (P08908 1-422): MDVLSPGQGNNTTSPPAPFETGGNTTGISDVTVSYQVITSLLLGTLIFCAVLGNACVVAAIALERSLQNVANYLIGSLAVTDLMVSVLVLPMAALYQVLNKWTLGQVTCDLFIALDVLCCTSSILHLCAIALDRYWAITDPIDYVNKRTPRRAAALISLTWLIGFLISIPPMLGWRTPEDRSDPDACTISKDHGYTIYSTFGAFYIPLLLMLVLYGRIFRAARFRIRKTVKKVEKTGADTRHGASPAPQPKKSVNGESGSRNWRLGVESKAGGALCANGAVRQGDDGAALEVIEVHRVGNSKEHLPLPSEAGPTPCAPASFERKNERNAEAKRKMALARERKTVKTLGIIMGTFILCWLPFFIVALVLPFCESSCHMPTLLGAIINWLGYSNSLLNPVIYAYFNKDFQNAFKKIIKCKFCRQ
Protocol: (§2) Radioligand bindings were performed according to the test method provided by the supplier of receptor membrane (Euroscreen/BioSignal Packard Inc.).

5-HT2a = target: T6, 5-HT2a (Homo sapiens, UniProt P28223); test: Radioligand binding, 5-HT2a ([3H]Ketanserin); conditions: read-out: Binding affinity (Inhibition rate % at 10 μM) 5HT2a
T6 construct: purchased Euroscreen/BioSignal Packard Inc
T6 sequence (P28223 whole entry): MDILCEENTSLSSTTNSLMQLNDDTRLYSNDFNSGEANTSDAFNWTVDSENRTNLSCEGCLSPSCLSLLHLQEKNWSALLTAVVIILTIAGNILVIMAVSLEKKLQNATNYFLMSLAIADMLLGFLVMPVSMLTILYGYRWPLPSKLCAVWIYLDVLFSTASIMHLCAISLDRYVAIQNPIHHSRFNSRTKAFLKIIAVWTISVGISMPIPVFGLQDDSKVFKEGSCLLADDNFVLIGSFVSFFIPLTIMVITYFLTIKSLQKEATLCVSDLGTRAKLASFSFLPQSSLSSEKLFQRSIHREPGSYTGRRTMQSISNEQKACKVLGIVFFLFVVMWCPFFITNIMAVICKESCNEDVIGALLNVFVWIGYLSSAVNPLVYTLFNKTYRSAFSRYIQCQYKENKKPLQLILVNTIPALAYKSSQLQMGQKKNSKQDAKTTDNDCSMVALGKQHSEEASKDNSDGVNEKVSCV
Protocol: as §2

5-HT2c = target: T7, 5-HT2c (Homo sapiens, UniProt P28335); test: Radioligand binding, 5-HT2c ([3H]Mesulergine); conditions: read-out: Binding affinity (Inhibition rate % at 10 μM) 5HT2c
T7 construct: purchased Euroscreen/BioSignal Packard Inc
T7 sequence (P28335 33-458): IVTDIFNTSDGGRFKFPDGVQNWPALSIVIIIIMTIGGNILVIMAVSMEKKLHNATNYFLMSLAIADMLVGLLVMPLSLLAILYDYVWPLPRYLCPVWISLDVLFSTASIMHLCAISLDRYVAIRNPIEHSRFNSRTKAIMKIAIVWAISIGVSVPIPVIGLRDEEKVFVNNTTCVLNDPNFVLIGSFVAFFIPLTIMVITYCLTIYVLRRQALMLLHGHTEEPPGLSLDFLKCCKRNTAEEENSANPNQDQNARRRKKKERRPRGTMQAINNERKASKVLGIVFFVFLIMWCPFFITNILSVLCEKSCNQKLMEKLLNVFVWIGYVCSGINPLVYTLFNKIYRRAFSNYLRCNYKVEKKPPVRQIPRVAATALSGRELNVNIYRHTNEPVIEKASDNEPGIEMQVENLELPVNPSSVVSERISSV
Protocol: as §2

5-HT7 = target: T8, 5-HT7 (Homo sapiens, UniProt P34969); test: Radioligand binding, 5-HT7 ([3H]LSD); conditions: read-out: Binding affinity (Inhibition rate % at 10 μM) 5HT7
T8 construct: purchased Euroscreen/BioSignal Packard Inc
T8 sequence (P34969 whole entry): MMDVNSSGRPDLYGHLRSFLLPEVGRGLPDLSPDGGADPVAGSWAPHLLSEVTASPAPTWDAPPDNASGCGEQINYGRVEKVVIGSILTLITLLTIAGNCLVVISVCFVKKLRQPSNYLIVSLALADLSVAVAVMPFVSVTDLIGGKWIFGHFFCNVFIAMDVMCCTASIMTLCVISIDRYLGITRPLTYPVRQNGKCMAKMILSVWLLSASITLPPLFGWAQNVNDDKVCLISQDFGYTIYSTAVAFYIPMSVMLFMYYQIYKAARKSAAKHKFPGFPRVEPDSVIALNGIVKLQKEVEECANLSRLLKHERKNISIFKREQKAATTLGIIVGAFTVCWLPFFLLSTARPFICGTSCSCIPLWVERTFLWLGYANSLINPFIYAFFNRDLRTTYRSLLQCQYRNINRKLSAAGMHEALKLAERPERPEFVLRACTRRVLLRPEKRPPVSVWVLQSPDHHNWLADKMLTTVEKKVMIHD
Protocol: as §2

T1 sequence (P50406 whole entry): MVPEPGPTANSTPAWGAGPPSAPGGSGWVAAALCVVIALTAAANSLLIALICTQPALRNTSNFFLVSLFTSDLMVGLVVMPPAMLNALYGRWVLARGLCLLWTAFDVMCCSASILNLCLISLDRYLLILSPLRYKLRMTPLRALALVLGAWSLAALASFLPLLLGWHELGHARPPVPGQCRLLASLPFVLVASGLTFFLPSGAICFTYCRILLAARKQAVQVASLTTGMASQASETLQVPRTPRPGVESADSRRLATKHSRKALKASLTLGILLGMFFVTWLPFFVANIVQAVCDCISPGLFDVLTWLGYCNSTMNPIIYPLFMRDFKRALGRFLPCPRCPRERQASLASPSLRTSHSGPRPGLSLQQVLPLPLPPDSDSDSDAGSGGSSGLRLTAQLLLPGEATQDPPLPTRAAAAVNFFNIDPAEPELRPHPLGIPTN

Row | SMILES | IC50 [1] [nM] | inhibition at 10 µM [1] [%] | inhibition at 10 µM (D1) [%] | inhibition at 10 µM (hD2L receptor) [%] | inhibition at 10 µM (hD3 receptor) [%] | inhibition at 10 µM (hD4.2 receptor) [%] | inhibition at 10 µM (5-HT1a) [%] | inhibition at 10 µM (5-HT2a) [%] | inhibition at 10 µM (5-HT2c) [%] | inhibition at 10 µM (5-HT7) [%]
1 | COc1cc(Cl)c2c(c1)NC(=O)C(C)(c1ccccc1)C2=O (stereo not drawn) [Example 5, 5-chloro-7-methoxy-3-methyl-3-phenyl-1H-quinoline-2,4-dione] | 560 | 73.5 | 10.3 | 20.5 | 10.1 | 0 | 18.9 | 26.8 | 20.5 | 9.4
2 | COc1cc(Br)c2c(c1)NC(=O)C(C)(c1ccccc1)C2=O (stereo not drawn) [Example 7, 5-bromo-7-methoxy-3-methyl-3-phenyl-1H-quinoline-2,4-dione] | 119 | 71.1 | 30.5 | 12.8 | 1.5 | 0.8 | 29.1 | 25.4 | 30.3 | 12.4
3 | CC1(c2ccccc2)C(=O)Nc2c(Br)cc(Br)cc2C1=O (stereo not drawn) [Example 10, 6,8-dibromo-3-methyl-3-phenyl-1H-quinoline-2,14-dione] | 1330 | 73.4 | 13.5 | 11.2 | 19.5 | 0 | 0 | 29.5 | 16.8 | 20.7
4 | CC1(c2ccc([N+](=O)[O-])cc2)C(=O)Nc2cc(Cl)cc(Cl)c2C1=O (stereo not drawn) [Example 14, 5,7-dichloro-3-methyl-3-(4-nitro-phenyl)-1H-quinoline-2,4-dione] | 870 | 71.2 | 6.5 | 26.5 | 30.7 | 0 | 60.5 | 54.1 | 3.8 | 10.8
5 | CC1(c2ccc(N)cc2)C(=O)Nc2cc(Cl)cc(Cl)c2C1=O (stereo not drawn) [Example 15, 3-(4-amino-phenyl)-5,7-dichloro-3-methyl-1H-quinoline-2,4-dione] | 254 | 73 | 4.8 | 0 | 5.8 | 4.5 | 52.3 | 16.9 | 15.6 | 11.1
6 | CC1(c2ccc(I)cc2)C(=O)Nc2cc(Cl)cc(Cl)c2C1=O (stereo not drawn) [Example 16, 5,7-dichloro-3-(4-iodo-phenyl)-3-methyl-1H-quinoline-2,4-dione] | 1550 | 70.9 | 24.7 | 20.1 | 10 | 1.3 | 43.5 | 47.2 | 34.5 | 50.7
7 | CC1(c2ccc(Cl)cc2)C(=O)Nc2cc(Cl)cc(Cl)c2C1=O (stereo not drawn) [Example 17, 5,7-dichloro-3-(4-chloro-phenyl)-3-methyl-1H-quinoline-2,4-dione] | 1430 | 69.8 | 13.8 | 7.5 | 16.5 | 0.5 | 26.7 | 30.2 | 21.2 | 26.9
8 | CC1(c2ccc(Br)cc2Br)C(=O)Nc2cc(Cl)cc(Cl)c2C1=O (stereo not drawn) [Example 27, 3-(2,4-dibromo-phenyl)-5,7-dichloro-3-methyl-1H-quinoline-2,4-dione] | 349 | 71.1 | 25.8 | 10.2 | 15.6 | 1.6 | 46 | 30.8 | 28.1 | 12.3
9 | COc1ccc(C2(C)C(=O)Nc3c(Br)cc(Br)cc3C2=O)cc1[N+](=O)[O-] (stereo not drawn) [Example 28, 6,8-dibromo-3-(4-methoxy-3-nitro-phenyl)-3-methyl-1H-quinoline-2,4-dione] | 1200 | 73.2 | 46.9 | 9.4 | 40.9 | 2.3 | 60.9 | 9 | 13.7 | 10.2
10 | COc1ccc(C2(C)C(=O)Nc3c(Br)cc(Br)cc3C2=O)cc1N (stereo not drawn) [Example 29, 3-(3-amino-4-methoxy-phenyl)-6,8-dibromo-3-methyl-1H-quinoline-2,4-dione] | 1550 | 68.5 | 23.6 | 5.6 | 43.8 | 11.6 | 40.7 | 21.1 | 40.6 | 28.1
11 | CC1(c2ccc(O)c(N)c2)C(=O)Nc2c(Br)cc(Br)cc2C1=O (stereo not drawn) [Example 30, 3-(3-amino-4-hydroxy-phenyl)-6,8-dibromo-3-methyl-1H-quinoline-2,4-dione] | 1730 | 69.2 | 18.6 | 18.5 | 25.1 | 0.9 | 0 | 35.1 | 5.4 | 4.9
12 | COc1ccc(C2(C)C(=O)Nc3ccccc3C2=O)cc1 (stereo not drawn) [Example 33, 3-(4-methoxy-phenyl)-3-methyl-1H-quinoline-2,4-dione] | 487 | 72.4 | 29.5 | 20.9 | 13.1 | 0 | 20.4 | 10.7 | 13.5 | 6.6

— US7592457B2 (Korea Research Institute of Chemical Technology, priority 2004, dated 2009)
